Measurements taken from patent US10335372B2, “Compositions with modified nucleases targeted to viral nucleic acids and methods of use for prevention and treatment of viral diseases” (priority 2004, dated 2019).
Where a chain is given by its changes, count along the chain named. In names and notes the source's numbering stands. Several values for one entry are separate records, joined by “and”; a condition that tells them apart may be missing. Identical values can stand only once. Like-named read-outs stand apart in the source and are kept apart here. Where no end group is shown, it is not given here. [ ]: non-standard residue; d: D form.

Tests used:
HIV-1 = HIV-1 infectivity on serial passage in MT-4 cells with drug; format: cell-based
HIV-1 (HXB2) = test: Plaque reduction assay in CD4+ HeLa cells of serially passaged virus; format: cell-based
HepG2 intact cells = test: Cellular uptake of rhodamine-labeled DNase complexes, fluorimeter; format: cell-based, human; details: 30 min incubation
Experimental: (§1) The cellular uptake of bovine DNase I (DNase), DNase-PEG and DNase-PEG-R8 complex is evaluated using the HepG2 cell line (human hepatocarcinoma cells ATCC, No-HB-8065). […] DNase I is labeled with fluorescent rodamine (*) according to the manufacturer's instruction (Pierce, Inc., Rockford, Ill.). Penetration of *DNase-PEG-K-R8 into HepG2 cells is compared to that of *DNase and *DNase-PEG after 30 min of incubation with HepG2 cells in DMEM at 37° C.
(§2) To maintain the cells the growth medium 199 is used.

HepG2 VV-infected cells = format: cell-based, human; details: 30 min incubation
Experimental: as §1, §2

cytomegalovirus (CMV) = test: Anti-CMV activity in HEP-2 cells; details: for CMV Titer: single values
mouse leukemia virus [1] = test: Prevention of leukemia development in AKR mice; format: in vivo; details: 5,000 KuU/g s.c. every second day for a month
Source text: Leukemia in AKR mice is known to be promoted by mouse leukemia virus. The lymphoid tissues of AKR mice contain mouse leukemia virus, and spontaneously develop leukemia, at the age of 6-8 months.

[2] = system: Herpes simplex virus, type I (HSV-1); test: Anti-HSV-1 activity in HEP-2 cells; format: cell-based; details: for HSV Titer: single values
mouse leukemia virus [3] = test: Treatment of viral lymphatic leukemia in 9-10 month old AKR mice; format: in vivo; details: 5 kUA/g s.c. every four days
Experimental: To study the treatment effect of DNase and TDNase, the experiment is carried out on 9-10 month old AKR mice with manifestations of lymphoid leukemia. A significant increase in the size of lymph nodes, thymus, liver and spleen and high mitotic index in lymphoid tissues is observed in these animals. The treated groups include 24 mice in each while the control group includes 19 mice. Administration of DNase I and TDNase every four days s.c., in a dose of 5,000 KuU/g body weight, results in a decrease of lymphatic tissues and mitotic index to normal levels, and in an increase in longevity of animals. However, a more profound effect is obtained in animals receiving TDNase than DNase, and receiving TDNase-PEG than TDNase, as is shown in Table 25.

cytomegalovirus = test: Antiviral activity of modified DNase I against cytomegalovirus in cell culture; details: 500 UA/ml, 48 h at 37° C.; for Virus Titer: single values
Vaccinia virus = format: cell-based; details: 500 KuU/ml, 48 h at 37° C.
dsDNA [4] = details: physiological monovalent cation strength; cited from earlier work
S-protein = S-protein (Bos taurus, UniProt P61823); details: N-terminal residues 1-15; cited from earlier work
avian adenovirus = system: avian adenovirus; set-up: species or system chickens; details: in vivo
[5] = system: herpes virus simplex I (HSV-I); test: Effect of tri-peptide P3 and P-PEG-R8 on replication of HSV-1 in vitro; format: cell-based; details: for HSV Titer: single values
dsDNA [6] = test: Hydrolysis of dsDNA in human serum by native, multi-charged and actin-resistant DNase I variants
ssRNA corona virus = test: Antiviral efficacy of pegylated human RNase I
ssRNA coronavirus = test: RNase A on virus replication in HEP-2 cells; details: 200 UA/ml
dsRNA reovirus = test: RNase A on virus replication in HEP-2 cells; details: 200 UA/ml
[7] = system: ssRNA equine encephalitis virus; format: cell-based; details: 500 UA/ml
honeybee paralysis virus = format: in vivo, honeybees; details: of 100 infected
Experimental: Infectious titer of HBVP is […] per ml. The honeybees are infected by feeding the viral emulsion. Insects are sprayed by an aerosol of enzyme diluted in physiological solution 3 hours before the inoculation of virus. […] Treatment of insects 6 hours after inoculation of virus still protected them from development of disease.

Cc1cn([C@H]2C[C@H](N=[N+]=[N-])[C@@H](CO)O2)c(=O)[nH]c1=O [AZT]
HIV-1 infectivity (HIV-1; passage 0): 2.8 log10TCID50/ml | HIV-1 infectivity (HIV-1; passage 1): 2.6 log10TCID50/ml | HIV-1 infectivity (HIV-1; passage 2): 3.8 log10TCID50/ml | HIV-1 infectivity (HIV-1; passage 5): 4.7 log10TCID50/ml | HIV-1 infectivity (HIV-1; passage 15): 5.9 log10TCID50/ml | shift in sensitivity (HIV-1 (HXB2); sixth passage): > 1000 fold | IC50 (HIV-1 (HXB2); virus of fourth passage in drug-treated MT-4 cells): > 50 µM | IC50 (HIV-1 (HXB2); virus of sixth passage): > 250 µM

*DNase
OD (430 nm), cellular uptake (HepG2 intact cells): 37 | OD (430 nm), cellular uptake (HepG2 VV-infected cells): 48

DNase
Average Titer (cytomegalovirus (CMV); 50 UA/ml): 5.1 logTCD50/ml | CMV Titer (cytomegalovirus (CMV); 50 UA/ml): 5.1 logTCD50/ml and 5.0 logTCD50/ml | Average Titer (cytomegalovirus (CMV); 100 UA/ml): 4.5 logTCD50/ml | CMV Titer (cytomegalovirus (CMV); 100 UA/ml): 4.6 logTCD50/ml and 4.5 logTCD50/ml and 4.7 logTCD50/ml | Average Titer (cytomegalovirus (CMV); 500 UA/ml): 3.8 logTCD50/ml | CMV Titer (cytomegalovirus (CMV); 500 UA/ml): 3.8 logTCD50/ml and 3.9 logTCD50/ml and 3.7 logTCD50/ml | Average Titer (cytomegalovirus (CMV); [0] UA/ml): 5.5 logTCD50/ml | CMV Titer (cytomegalovirus (CMV); [0] UA/ml): 5.4 logTCD50/ml and 5.6 logTCD50/ml and 5.5 logTCD50/ml | development of leukemia (mouse leukemia virus [1]): preclude the development of leukemia | Average Titer ([2]; 10 UA/ml): 5.4 logTCD50/ml | HSV Titer ([2]; 10 UA/ml): 5.4 logTCD50/ml and 5.5 logTCD50/ml and 5.3 logTCD50/ml | Average Titer ([2]; 50 UA/ml): 5.1 logTCD50/ml | HSV Titer ([2]; 50 UA/ml): 5.1 logTCD50/ml and 5.0 logTCD50/ml | Average Titer ([2]; 100 UA/ml): 4.5 logTCD50/ml | HSV Titer ([2]; 100 UA/ml): 4.6 logTCD50/ml and 4.5 logTCD50/ml and 4.7 logTCD50/ml | Average Titer ([2]; 500 UA/ml): 3.8 logTCD50/ml | HSV Titer ([2]; 500 UA/ml): 3.8 logTCD50/ml and 3.9 logTCD50/ml and 3.7 logTCD50/ml | Liver (mouse leukemia virus [3]): 941 ± 33 g | Longevity (weeks) (mouse leukemia virus [3]): 16 ± 1.0 weeks | Mitotic Index (mouse leukemia virus [3]): 0.18 ± 0.02 | Average Titer (cytomegalovirus): 6.5 logTCD50/0.1 ml | Virus Titer (cytomegalovirus): 6.3 logTCD50/0.1 ml and 6.4 logTCD50/0.1 ml and 6.5 logTCD50/0.1 ml | Average log TCD50 (Vaccinia virus): 4.7 log TCD50 | log TCD50 (Vaccinia virus; single values): 4.6 log TCD50 and 4.8 log TCD50

EndoG: sugar-nonspecific 29 kDa human endonuclease
inhibition (dsDNA [4]): about 15 fold

KETAAAKFERQHMDS [bovine S-peptide]
Kd (S-protein): < 1 nM

[dS]-His
chickens that survive (avian adenovirus): 18

[dS]-His-[dD] [P3]
chickens that survive (avian adenovirus): 19 | Average Titer ([5]; 10 UA/ml): 5.7 logTCD50/ml | HSV Titer ([5]; 10 UA/ml): 5.8 logTCD50/ml and 5.6 logTCD50/ml and 5.7 logTCD50/ml | Average Titer ([5]; 50 UA/ml): 5.4 logTCD50/ml | HSV Titer ([5]; 50 UA/ml): 5.5 logTCD50/ml and 5.4 logTCD50/ml and 5.3 logTCD50/ml | Average Titer ([5]; 100 UA/ml): 5.1 logTCD50/ml | HSV Titer ([5]; 100 UA/ml): 5.2 logTCD50/ml and 5.3 logTCD50/ml and 5.1 logTCD50/ml | Average Titer ([5]; 500 UA/ml): 4.8 logTCD50/ml | HSV Titer ([5]; 500 UA/ml): 4.8 logTCD50/ml and 4.9 logTCD50/ml and 4.7 logTCD50/ml

B1: arDNase (+1): actin-resistant human DNase I with substitution A114R (protein, UniProt P24855 23-282, looked up, variant A114R)
Deoxyribonuclease-1: LKIAAFNIQTFGETKMSNATLVSYIVQILSRYDIALVQEVRDSHLTAVGKLLDNLNQDAPDTYHYVVSEPLGRNSYKERYLFVYRPDQVSAVDSYYYDDGCEPCGNDTFNREPRIVRFFSRFTEVREFAIVPLHAAPGDAVAEIDALYDVYLDVQEKWGLEDVMLMGDFNAGCSYVRPSQWSSIRLWTSPTFQWLIPDSADTTATPTHCAYDRIVVAGMLLRGAVVPDSALPFNFQAAYGLSDQLAQAISDHYPVEVMLK
Average T50 (min) 50% DNA hydrolysis (dsDNA [6]): 3 min | Time T50 (min) 50% DNA hydrolysis (dsDNA [6]; single values of triplicate): 2 min and 3 min and 4 min

B2: PEG-DNase: human DNase I conjugated with PEG (Example 14) (conjugate, UniProt P24855 23-282, looked up)
Deoxyribonuclease-1: B1 Deoxyribonuclease-1 with R114A
modifications: PEG
Average Titer (cytomegalovirus): 3.4 logTCD50/0.1 ml | Virus Titer (cytomegalovirus): 3.2 logTCD50/0.1 ml and 3.4 logTCD50/0.1 ml and 3.5 logTCD50/0.1 ml

B3: (PNA)2-PEG-DNase: 18-mer bis-PNA complementary to viral DNA conjugated with forked 2×20 kDa PEG and human DNase I (conjugate, UniProt P24855 23-282, looked up)
Deoxyribonuclease-1: B1 Deoxyribonuclease-1 with R114A
modifications: forked 2x20 kDa PEG, bis-PNA
Average Titer (cytomegalovirus): 0.3 logTCD50/0.1 ml | Virus Titer (cytomegalovirus): 0.2 logTCD50/0.1 ml and 0.3 logTCD50/0.1 ml and 0.4 logTCD50/0.1 ml

B4: pegylated RNase I: wild-type recombinant human RNase I reacted with mPEG-SS (conjugate, UniProt P07998 29-156, looked up)
Ribonuclease pancreatic: KESRAKKFQRQHMDSDSSPSSSSTYCNQMMRRRNMTQGRCKPVNTFVHEPLVDVQNVCFQEKVTCKNGQGNCYKSNSSMHITDCRLTNGSRYPNCAYRTSPKERHIIVACEGSPYVPVHFDASVEDST
modifications: mPEG-SS
antiviral efficacy compared with unpegylated enzyme (ssRNA corona virus): enhances its antiviral efficacy

B5: RNase A: bovine RNase A (Examples 21, 23, 24, 28, 37, 40) (protein, UniProt P61823 27-150, looked up)
Ribonuclease pancreatic: KETAAAKFERQHMDSSTSAASSSNYCNQMMKSRNLTKDRCKPVNTFVHESLADVQAVCSQKNVACKNGQTNCYQSYSTMSITDCRETGSSKYPNCAYKTTQANKHIIVACEGNPYVPVHFDASV
Average Titer (ssRNA coronavirus): 1.5 logTCD50/0.1 ml | Titer (ssRNA coronavirus; single values): 1.4 logTCD50/0.1 ml and 1.6 logTCD50/0.1 ml and 1.5 logTCD50/0.1 ml | Average Titer (dsRNA reovirus): 4.0 logTCD50/0.1 ml | Titer (dsRNA reovirus; single values): 4.0 logTCD50/0.1 ml and 4.1 logTCD50/0.1 ml and 3.9 logTCD50/0.1 ml | Average Titer [7]: 5.26 logTCD50/0.1 ml | Titer ([7]; single values): 5.2 logTCD50/0.1 ml and 5.4 logTCD50/0.1 ml | Surviving Honeybees (honeybee paralysis virus; 200 UA/ml): 4 | Surviving Honeybees (honeybee paralysis virus; 500 UA/ml): 11 | Surviving Honeybees (honeybee paralysis virus; 1000 UA/ml): 67 | Surviving Honeybees (honeybee paralysis virus; 1500 UA/ml): 100
